Data as given in patent publication US20260001914A1, “MACROCYCLIC PEPTIDES TARGETING KRAS” (Merck Sharp & Dohme LLC, priority 2022, published 2026).
*1 amine or outer side, *2 acyl side, *3 side chain or, on linkers, in order; H or OH if unused. Where a SMILES comes first, the peptide text is derived from it. Bridges are numbered along the chain shown (N, C = ends). [ ]: non-standard residue; d: D form. X34 = O=C(C[C@@H](Cc1ccccc1)C(=O)[*:2])C12CC(CN[*:1])(C1)C2; cBu(1-CO,cis-3-CH2NH) = O=C([C@H]1C[C@@H](CN[*:1])C1)[*:2]; NMeNva(5-imidazol-1-yl) = CN[C@@H](CCCn1ccnc1)C(=O)O; Phe(4-guanidino) = N=C(N)Nc1ccc(C[C@H](N)C(=O)O)cc1; X65 = O=C([C@H](CCCn1ccnc1[N+](=O)[O-])N[*:1])[*:2]; X76 = CN(CCC[C@@H](C(=O)[*:2])N(C)[*:1])S(C)(=O)=O; X82 = CS(=O)(=O)c1ncc(C[C@H](N[*:1])C(=O)[*:2])cn1; X59 = O=C([C@H](Cc1ccc(CN2CCCC2)cc1)N[*:1])[*:2]; Ala(pyrimidin-5-yl) = N[C@@H](Cc1cncnc1)C(=O)O; NMe3Pal(5-F) = CN[C@@H](Cc1cncc(F)c1)C(=O)O; Bip = N[C@@H](Cc1ccc(-c2ccccc2)cc1)C(=O)O; X20 = CN([C@@H](Cc1cnco1)C(=O)[*:2])[*:1]; Lys(N3) = [N-]=[N+]=NCCCC[C@H](N)C(=O)O; X11 = CC(C)(F)CC[C@H](N[*:1])C(=O)[*:2]; Arg(Me2s) = CN=C(NC)NCCC[C@H](N)C(=O)O; 1Nal = N[C@@H](Cc1cccc2ccccc12)C(=O)O; NHCH2CH2SCH2CO = O=C(CSCCN[*:1])[*:2]; Phe(2-F) = N[C@@H](Cc1ccccc1F)C(=O)O; NMe3Pal = CN[C@@H](Cc1cccnc1)C(=O)O; X1 = O=C(C12CC(CN[*:1])(C1)C2)[*:2]; hTyr = N[C@@H](CCc1ccc(O)cc1)C(=O)O; Ala(cPr) = N[C@@H](CC1CC1)C(=O)O; NMeF = CN[C@@H](Cc1ccccc1)C(=O)O; PhLac = O=C(O)[C@@H](O)Cc1ccccc1; 3Pal = N[C@@H](Cc1cccnc1)C(=O)O; d3Pal = N[C@H](Cc1cccnc1)C(=O)O; 3Thi = N[C@@H](Cc1ccsc1)C(=O)O; Ahp(2) = CCCCC[C@H](N)C(=O)O; Cba = N[C@@H](CC1CCC1)C(=O)O; hLeu = CC(C)CC[C@H](N)C(=O)O; hLys = NCCCCC[C@H](N)C(=O)O; αMeC = C[C@](N)(CS)C(=O)O; NMeA = CN[C@@H](C)C(=O)O; Nle = CCCC[C@H](N)C(=O)O

target: KRAS-G12D protein (Homo sapiens, UniProt P01116, G12D); experiment: SOS-mediated nucleotide exchange assay (BODIPY-GDP / Tb-streptavidin TR-FRET); assay type: biochemical; details: not given
Sequence (P01116 1-188 isoform P01116-2 G12D): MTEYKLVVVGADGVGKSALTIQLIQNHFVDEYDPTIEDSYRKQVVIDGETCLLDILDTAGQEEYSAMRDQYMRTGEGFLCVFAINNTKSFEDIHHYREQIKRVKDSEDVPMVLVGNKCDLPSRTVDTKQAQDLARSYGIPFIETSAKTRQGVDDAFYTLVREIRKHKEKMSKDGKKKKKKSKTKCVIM

Structure (SMILES)	EC50
CCCC[C@@H]1NC(=O)[C@H](CCCCCN)NC(=O)[C@H](CCCNC(=N)N)NC(=O)[C@H](Cc2ccccc2)NC(=O)CSCCNC(=O)[C@H](Cc2ccccc2)N(C)C(=O)[C@H](CCc2ccc(O)cc2)NC(=O)[C@H](Cc2ccc(-c3ccccc3)cc2)NC1=O [compound 194, cyclo(F-R-hK-Nle-Bip-hY-NMeF-Cysteamine-ClAc)] (cyclo([Bip][hTyr][NMeF][NHCH2CH2SCH2CO]FR[hLys][Nle]))	4490 nM
CCCC[C@@H]1NC(=O)[C@H](Cc2cccnc2)NC(=O)[C@H](C)N(C)C(=O)[C@H](Cc2ccc(O)cc2)NC(=O)C23CC(CNC(=O)[C@H](Cc4cccnc4)N(C)C(=O)[C@H](CCCC)NC(=O)[C@H](Cc4ccccc4F)NC1=O)(C2)C3 [compound 168, cyclo(Y-NMeA-3Pal-Nle-Phe2F-Nle-NMe3Pal-amBCP)] (cyclo(Y[NMeA][3Pal][Nle][Phe(2-F)][Nle][NMe3Pal][X1]))	440 nM
CCCC[C@@H]1NC(=O)[C@H](Cc2ccc(O)cc2)NC(=O)[C@H](CC(C)C)NC(=O)[C@H](Cc2ccc(O)cc2)NC(=O)[C@H](CCCNC(=N)N)NC(=O)[C@H](Cc2cccc3ccccc23)NC(=O)CSC[C@H](C(N)=O)NC(=O)[C@H](Cc2ccccc2)N(C)C1=O [compound 17, cyclo(INal-R-Y-L-Y-Nle-NMeF-dCl-ClAc)] ({CH2CO}-[1Nal]RYLY[Nle][NMeF][dC]-NH2; thioether N-8)	1050 nM
C[C@H]1C(=O)N[C@@H](Cc2cncnc2)C(=O)N[C@@H](CC2CC2)C(=O)N[C@@H](Cc2ccccc2F)C(=O)N[C@@H](CCC(C)(C)F)C(=O)N(C)[C@@H](Cc2ccccc2)C(=O)NCC23CC(C2)(C3)C(=O)C[C@@H](Cc2ccccc2)C(=O)N1C [compound 273, cyclo(CPhe-NMeA-PyrimAla-cPrA-Phe2F-hL3F-NMeF-amBCP)] (cyclo([Ala(cPr)][Phe(2-F)][X11][NMeF][X34][NMeA][Ala(pyrimidin-5-yl)]))	1 nM
CCCCC[C@@H]1NC(=O)[C@H](Cc2ccc(OC)cc2)NC(=O)[C@H](CC2CCC2)NC(=O)[C@H](Cc2cccnc2)NC(=O)[C@H](CCCNC(=N)N)NC(=O)[C@H](Cc2ccccc2)NC(=O)CSC[C@@](C)(C(N)=O)NC(=O)[C@H](Cc2cnco2)N(C)C1=O [compound 379, cyclo(F-R-3Pal-cBuA-TyrOMe-Ahp-NMeAla5Oxa-aMeCl-ClAc)] ({CH2CO}-FR[3Pal][Cba]Y(Me)[Ahp(2)][X20][αMeC]-NH2; thioether N-8)	48.9 nM
COc1ccc(C[C@@H]2NC(=O)[C@H](CC3CCC3)NC(=O)[C@H](Cc3cccnc3)NC(=O)[C@H](CCCNC(=N)N)NC(=O)[C@H](Cc3ccccc3)NC(=O)CSC[C@](C)(C(N)=O)NC(=O)[C@@H]3CCCCCC[C@H](NC2=O)C(=O)N3C)cc1 [SEQ ID NO: 188, cyclo(F-R-3Pal-cBuA-TyrOMe-RdHagNMeHag-aMeC-C1Ac)]	299 nM
CCCC[C@@H]1NC(=O)[C@H](Cc2ccc(CN3CCCC3)cc2)NC(=O)[C@H](CCCn2ccnc2)N(C)C(=O)[C@H](Cc2ccccc2)NC(=O)C23CC(CNC(=O)[C@H](Cc4cccnc4)N(C)C(=O)[C@H](CCCC)NC(=O)[C@H](Cc4ccccc4F)NC1=O)(C2)C3 [compound 263, cyclo(F-NMeNvaImid-Phe4cPyrr-Nle-Phe2F-Nle-NMe3Pal-amBCP)] (cyclo(F[NMeNva(5-imidazol-1-yl)][X59][Nle][Phe(2-F)][Nle][NMe3Pal][X1]))	42.1 nM
COc1ccc(C[C@@H]2NC(=O)[C@H](CC3CCC3)NC(=O)[C@H](Cc3cccnc3)NC(=O)[C@H](CCCNC(=N)N)NC(=O)[C@H](Cc3ccccc3)NC(=O)CSC[C@](C)(C(N)=O)NC(=O)[C@@H]3CCCCCCCC[C@H](NC2=O)C(=O)N3C)cc1 (single isomer, unassigned) [SEQ ID NO: 191]	324 nM
CCCC[C@@H]1NC(=O)[C@H](Cc2ccc(NC(=N)N)cc2)NC(=O)[C@H](CCCNC(=N)N)NC(=O)[C@H](Cc2cccc3ccccc23)NC(=O)CNC(=O)[C@@H](C)NC(=O)[C@H](Cc2ccccc2)N(C)C(=O)[C@H](CCCC)NC(=O)[C@H](Cc2ccc(O)cc2)NC1=O [compound 200, cyclo(1Nal-R-Phe4Gn-Nle-Y-Nle-NMeF-dA-G)] (cyclo([1Nal]R[Phe(4-guanidino)][Nle]Y[Nle][NMeF][dA]G))	52.9 nM
CC(C)CC[C@@H]1NC(=O)[C@H](Cc2ccccc2F)NC(=O)[C@H](CC2CC2)NC(=O)[C@H](Cc2cncnc2)NC(=O)[C@H](C)N(C)C(=O)[C@H](Cc2ccccc2)OC(=O)C23CC(CNC(=O)[C@H](Cc4ccccc4)N(C)C1=O)(C2)C3 [compound 260, cyclo(FLac-NMeA-PyrimAla-cPrA-Phe2F-hL-NMeF-amBCP)] (cyclo([Ala(cPr)][Phe(2-F)][hLeu][NMeF][X1][PhLac][NMeA][Ala(pyrimidin-5-yl)]))	1.95 nM
CCCC[C@@H]1NC(=O)[C@H](Cc2ccc(C(F)(F)F)nc2)NC(=O)[C@H](CCCn2ccnc2)N(C)C(=O)[C@H](Cc2ccccc2)OC(=O)C23CC(CNC(=O)[C@H](Cc4ccccc4)N(C)C(=O)[C@H](CCCC)NC(=O)[C@H](Cc4ccccc4F)NC1=O)(C2)C3 (single isomer, unassigned) [compound 219, cyclo(FLac-NMeNvaImid-4CF33Pal-Nle-Phe2F-Nle-NMeF-amBCP)]	62.8 nM
CCCC[C@@H]1NC(=O)[C@H](Cc2ccc(OC)cc2)NC(=O)[C@H](CC(C)C)NC(=O)[C@H](Cc2ccc(NC(=N)N)cc2)NC(=O)[C@H](CCCN=C(NC)NC)NC(=O)[C@H](Cc2ccccc2)NC(=O)CSC[C@H](C(N)=O)NC(=O)[C@H](Cc2ccccc2)N(C)C1=O [compound 46, cyclo(F-ArgMeMe-Phe4Gn-L-TyrOMe-Nle-NMeF-dCl-ClAc)] ({CH2CO}-F[Arg(Me2s)][Phe(4-guanidino)]LY(Me)[Nle][NMeF][dC]-NH2; thioether N-8)	1160 nM
CCCC[C@@H]1NC(=O)[C@H](Cc2cccnc2)NC(=O)[C@H](CCCN(C)S(C)(=O)=O)N(C)C(=O)[C@H](Cc2ccccc2)OC(=O)C23CC(CNC(=O)[C@H](Cc4cccnc4)N(C)C(=O)[C@H](CCCC)NC(=O)[C@H](Cc4ccccc4F)NC1=O)(C2)C3 [compound 406, cyclo(FLac-NMeOmSuf-3Pal-Nle-Phe2F-Nle-NMe3Pal-amBCP)] (cyclo([3Pal][Nle][Phe(2-F)][Nle][NMe3Pal][X1][PhLac][X76]))	26 nM
CCCC[C@@H]1NC(=O)[C@H](Cc2ccsc2)NC(=O)[C@H](C)N(C)C(=O)[C@H](Cc2ccccc2)OC(=O)C23CC(CNC(=O)[C@H](Cc4ccccc4)N(C)C(=O)[C@H](CCCC)NC(=O)[C@H](Cc4ccccc4F)NC1=O)(C2)C3 [compound 318, cyclo(FLac-NMeA-3Thi-Nle-Phe2F-Nle-NMeF-amBCP)] (cyclo([3Thi][Nle][Phe(2-F)][Nle][NMeF][X1][PhLac][NMeA]))	527 nM
CC(C)CC[C@@H]1NC(=O)[C@H](Cc2ccccc2F)NC(=O)[C@H](CC2CCC2)NC(=O)[C@H](Cc2cncnc2)NC(=O)[C@H](C)N(C)C(=O)[C@H](Cc2ccccc2)OC(=O)C23CC(CNC(=O)[C@H](Cc4ccccc4)N(C)C1=O)(C2)C3 [compound 134, cyclo(FLac-NMeA-PyrimAla-cBuA-Phe2F-hL-NMeF-amBCP)] (cyclo([Cba][Phe(2-F)][hLeu][NMeF][X1][PhLac][NMeA][Ala(pyrimidin-5-yl)]))	6.47 nM
C[C@H]1C(=O)N[C@@H](Cc2cccnc2)C(=O)N[C@@H](CC2CC2)C(=O)N[C@@H](Cc2ccccc2F)C(=O)N[C@@H](CCC(C)(C)F)C(=O)N(C)[C@@H](Cc2cncc(F)c2)C(=O)NCC23CC(C2)(C3)C(=O)O[C@@H](Cc2ccccc2)C(=O)N1C [compound 284, cyclo(FLac-NMeA-3Pal-cPrA-Phe2F-hL3F-NMe3Pal5F-amBCP)] (cyclo([3Pal][Ala(cPr)][Phe(2-F)][X11][NMe3Pal(5-F)][X1][PhLac][NMeA]))	2 nM
CCCC[C@@H]1NC(=O)[C@H](Cc2ccc(NC(=N)N)cc2)NC(=O)[C@H](CCCNC(=N)N)NC(=O)[C@H](Cc2cccc3ccccc23)NC(=O)CNC(=O)[C@H](C)NC(=O)[C@H](Cc2ccccc2)N(C)C(=O)[C@H](CCCC)NC(=O)[C@H](Cc2ccc(O)cc2)NC1=O [compound 199, cyclo(INal-R-Phe4Gn-Nle-Y-Nle-NMeF-A-G)] (cyclo([1Nal]R[Phe(4-guanidino)][Nle]Y[Nle][NMeF]AG))	346 nM
CCCC[C@@H]1NC(=O)[C@H](Cc2cccnc2)NC(=O)[C@H](CCCn2ccnc2)N(C)C(=O)[C@H](Cc2ccccc2)N(C)C(=O)[C@H]2C[C@@H](CNC(=O)[C@H](Cc3cccnc3)N(C)C(=O)[C@H](CCCCN=[N+]=[N-])NC(=O)[C@H](Cc3ccccc3F)NC1=O)C2 [compound 157, cyclo(NMeF-NMeNvalmid-3Pal-Nle-Phe2F-LysN3-NMe3Pal-c3amCblc)] (cyclo([3Pal][Nle][Phe(2-F)][Lys(N3)][NMe3Pal][cBu(1-CO,cis-3-CH2NH)][NMeF][NMeNva(5-imidazol-1-yl)]))	7760 nM
CCCC[C@@H]1NC(=O)[C@H](Cc2cnc(S(C)(=O)=O)nc2)NC(=O)[C@H](C)N(C)C(=O)[C@H](Cc2ccccc2)OC(=O)C23CC(CNC(=O)[C@H](Cc4ccccc4)N(C)C(=O)[C@H](CCCC)NC(=O)[C@H](Cc4ccccc4F)NC1=O)(C2)C3 [compound 313, cyclo(FLac-NMeA-AlaPyrim4SO2Me-Nle-Phe2F-Nle-NMeF-amBCP)] (cyclo([NMeA][X82][Nle][Phe(2-F)][Nle][NMeF][X1][PhLac]))	5.22 nM
CCCCC[C@@H]1NC(=O)[C@H](Cc2ccc(OC)cc2)NC(=O)[C@H](CC2CCC2)NC(=O)[C@H](Cc2ccoc2)NC(=O)[C@H](CCCNC(=N)N)NC(=O)[C@H](Cc2ccccc2)NC(=O)CSC[C@@](C)(C(N)=O)NC(=O)[C@H](Cc2ccccc2)N(C)C1=O [compound 371, cyclo(F-R-Ala3Fur-cBuA-TyrOMe-Ahp-NMeF-aMeCl-ClAc)]	82.6 nM
CCCC[C@@H]1NC(=O)[C@H](Cc2ccccc2F)NC(=O)[C@H](CC2CCC2)NC(=O)[C@@H](Cc2cccnc2)NC(=O)[C@H](CCCn2ccnc2[N+](=O)[O-])NC(=O)[C@H](Cc2ccccc2)NC(=O)C23CC(CNC(=O)[C@H](Cc4cccnc4)N(C)C1=O)(C2)C3 [compound 107, cyclo(F-NO2IMNva-d3Pal-cBuA-Phe2F-Nle-NMe3Pal-amBCP)] (cyclo(F[X65][d3Pal][Cba][Phe(2-F)][Nle][NMe3Pal][X1]))	242 nM

same assay, conditions: listed as 189

Structure (SMILES)	EC50
COc1ccc(C[C@@H]2NC(=O)[C@H](CC3CCC3)NC(=O)[C@H](Cc3cccnc3)NC(=O)[C@H](CCCNC(=N)N)NC(=O)[C@H](Cc3ccccc3)NC(=O)CSC[C@](C)(C(N)=O)NC(=O)[C@@H]3CCCCCCC[C@H](NC2=O)C(=O)N3C)cc1 (single isomer, unassigned) [SEQ ID NO: 189]	1560 nM
